# From ChEMBL document CHEMBL2046421, “Study on anti-proliferative effect of benzoxathiole derivatives through inactivation of NF-κB in human cancer cells” (Bioorg Med Chem Lett, 2012)
# Experiments:
# [1] = Inhibition of NFkappaB expressed in THP1 cells assessed as inhibition of LPS-induced SEAP activity incubated for 2 hrs prior to LPS-induction measured after 16 hrs by reporter gene assay; format: cell-based; conditions: THP-1
# PC-3 = experiment: Antiproliferative activity against human PC3 cells by SRB assay; format: functional
# HCT-15 = experiment: Antiproliferative activity against human HCT15 cells by SRB assay; format: functional
# MDA-MB-231 = experiment: Antiproliferative activity against human MDA-MB-231 cells by SRB assay; format: functional
# NUGC-3 = experiment: Antiproliferative activity against human NUGC3 cells by SRB assay; format: functional
# NCI-H23 = experiment: Antiproliferative activity against human NCI-H23 cells by SRB assay; format: functional
# ACHN = experiment: Antiproliferative activity against human ACHN cells by SRB assay; format: functional
# [2] = Inhibition of NFkappaB expressed in RAW264.7 cells coexpressing NPT assessed as inhibition of LPS-induced SEAP activity incubated for 2 hrs prior to LPS-induction measured after 16 hrs by reporter gene assay; format: cell-based
Compound,IC50 [1] [µM],GI50 (PC-3) [µM],GI50 (HCT-15) [µM],GI50 (MDA-MB-231) [µM],GI50 (NUGC-3) [µM],GI50 (NCI-H23) [µM],GI50 (ACHN) [µM],IC50 [2] [µM]
CC1(C)CC(=O)c2s/c(=N/c3ccccc3)oc2C1,6.2,7.4,8.09,5.88,5.46,7.08,8.98,6.2
CC1CC(=O)c2s/c(=N/c3ccccc3)oc2C1 (stereo not drawn),6.7,2.63,2.07,2.31,1.89,2.72,2.98,6.7
CC(C)C1CC(=O)c2s/c(=N/c3ccccc3)oc2C1 (stereo not drawn),4.9,2.19,1.15,2.48,1.22,2.28,3.08,4.9
CC1(C)CC(=O)c2s/c(=N/C3CCCCC3)oc2C1,12.5,12.7,12.2,13.1,11.5,12.5,11.3,12.5
CC(C)C1CC(=O)c2s/c(=N/C3CCCCC3)oc2C1 (stereo not drawn),13.1,5.16,3.53,5.9,2.71,7.08,6.7,13.1
CC1(C)CC(=O)c2s/c(=N/c3ccc(Cl)cc3)oc2C1,7.5,4.26,3.79,6.38,2.94,11.6,9.81,7.5
CC1CC(=O)c2s/c(=N/c3ccc(Cl)cc3)oc2C1 (stereo not drawn),19.5,16.4,12.2,14.3,15.9,13.5,12.3,19.5
CC1(C)CC(=O)c2s/c(=N/c3ccc(F)cc3)oc2C1,10.6,2.45,2.39,3.2,1.08,3.36,3.74,10.6
CC(C)C1CC(=O)c2s/c(=N/c3ccc(F)cc3)oc2C1 (stereo not drawn),7.9,2.76,2.99,2.69,0.67,3.65,3.67,7.9
CC1(C)CC(=O)c2s/c(=N/c3c(Cl)cc(Cl)cc3Cl)oc2C1,> 30,> 30,> 30,> 30,> 30,> 30,> 30,> 30
CC1CC(=O)c2s/c(=N/c3c(Cl)cc(Cl)cc3Cl)oc2C1 (stereo not drawn),> 30,> 30,> 30,> 30,> 30,> 30,> 30,> 30
CC(C)C1CC(=O)c2s/c(=N/c3c(Cl)cc(Cl)cc3Cl)oc2C1 (stereo not drawn),> 30,> 30,> 30,> 30,> 30,> 30,> 30,> 30
CC1(C)CC(=O)c2o/c(=N/C3CCCCC3)oc2C1,> 30,> 30,> 30,> 30,> 30,> 30,> 30,> 30
CCCc1o/c(=N\c2ccccc2)sc1C(C)=O,> 30,> 30,> 30,> 30,> 30,> 30,> 30,> 30
COc1cccc2c1C(=O)c1c(O)c3c(c(O)c1C2=O)C[C@@](O)(C(=O)CO)C[C@@H]3O[C@H]1C[C@H](N)[C@H](O)[C@H](C)O1 [DOXORUBICIN],,1.65,1.34,1.79,1,1.66,1.63,
